Experimental data taken from patent US9359367B2, “Tetrahydroquinazolinone derivatives as PARP inhibitors” (Lupin Limited, priority 2012, dated 2016).

Target: T1, PARP1 (Homo sapiens, UniProt P09874)
T1 construct: purchased BPS Bioscience
Experiment: PARP1 Biochemical Assay (BPS Bioscience kit, chemiluminescence)
Conditions: histone-coated plate, biotinilated NAD+, 25° C. for 60 min, luminescence, read-out: PARP 1 inhibition IC50
In short: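 Human PARP1 (25–75 ng/well) with activated DNA was incubated with compound on histone-coated wells. Biotinylated NAD+ was added and the reaction ran 60 min at 25 °C. Ribosylation was detected by streptavidin-HRP chemiluminescence, % inhibition was normalised to enzyme-free and uninhibited controls, and IC50 was fitted from % inhibition versus concentration.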

T1 sequence (P09874 whole entry): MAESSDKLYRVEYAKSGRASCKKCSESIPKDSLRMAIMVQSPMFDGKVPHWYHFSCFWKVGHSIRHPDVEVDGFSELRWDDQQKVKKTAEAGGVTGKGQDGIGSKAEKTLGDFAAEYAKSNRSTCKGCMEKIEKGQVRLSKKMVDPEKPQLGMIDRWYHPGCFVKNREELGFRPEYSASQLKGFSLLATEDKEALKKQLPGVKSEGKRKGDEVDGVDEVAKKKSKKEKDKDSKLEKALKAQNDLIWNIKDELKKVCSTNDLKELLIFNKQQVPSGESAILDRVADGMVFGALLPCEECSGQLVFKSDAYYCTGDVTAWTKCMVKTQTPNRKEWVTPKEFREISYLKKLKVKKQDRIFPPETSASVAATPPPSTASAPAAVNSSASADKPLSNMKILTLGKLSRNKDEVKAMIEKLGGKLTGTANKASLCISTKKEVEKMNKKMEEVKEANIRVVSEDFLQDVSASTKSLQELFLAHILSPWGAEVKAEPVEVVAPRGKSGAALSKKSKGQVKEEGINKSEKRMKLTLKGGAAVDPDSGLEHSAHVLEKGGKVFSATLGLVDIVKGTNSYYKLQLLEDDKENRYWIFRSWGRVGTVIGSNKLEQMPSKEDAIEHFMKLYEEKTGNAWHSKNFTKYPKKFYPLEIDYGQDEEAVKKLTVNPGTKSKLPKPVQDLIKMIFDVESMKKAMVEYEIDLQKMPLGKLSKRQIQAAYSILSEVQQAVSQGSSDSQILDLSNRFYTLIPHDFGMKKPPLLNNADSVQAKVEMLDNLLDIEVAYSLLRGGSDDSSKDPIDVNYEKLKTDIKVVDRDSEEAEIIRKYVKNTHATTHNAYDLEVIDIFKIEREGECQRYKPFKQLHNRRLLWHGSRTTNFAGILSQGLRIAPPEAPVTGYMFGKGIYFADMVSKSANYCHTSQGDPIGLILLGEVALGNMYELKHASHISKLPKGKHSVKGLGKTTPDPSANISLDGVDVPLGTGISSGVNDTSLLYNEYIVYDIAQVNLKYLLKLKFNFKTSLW

Structure (SMILES) | IC50 [nM]
COc1ccc(N2CCN([C@H]3C=C(c4nc5c(c(=O)[nH]4)CC4(CC5)CC4)CC3)CC2)cc1 [Compound 74, (R)-2′-(3-(4-(4-methoxyphenyl)piperazin-1-yl)cyclopent-1-en-1-yl)-7′,8′-dihydro-3′H-spiro[cyclopropane-1,6′-quinazolin]-4′(5′H)-one] | 1 to 500
Cc1ccc(N2CCN([C@H]3C=C(c4nc5c(c(=O)[nH]4)CC4(CC5)CC4)CC3)CC2)cc1F [Compound 84, (R)-2′-(3-(4-(3-fluoro-4-methylphenyl)piperazin-1-yl)cyclopent-1-en-1-yl)-7′,8′-dihydro-3′H-spiro[cyclopropane-1,6′-quinazolin]-4′(5′H)-one] | 1 to 500
Cc1cc(N2CCN([C@H]3C=C(c4nc5c(c(=O)[nH]4)CC4(CC5)CC4)CC3)CC2)ccn1 [Compound 147, (R)-2′-(3-(4-(2-methylpyridin-4-yl)piperazin-1-yl)cyclopent-1-en-1-yl)-7′,8′-dihydro-3′H-spiro[cyclopropane-1,6′-quinazolin]-4′(5′H)-one] | 1 to 500
CC(C)(/C=C/c1nc2c(c(=O)[nH]1)CC1(CC2)CC1)N1CCN(c2ccc(F)cc2)CC1 [Compound 31, (E)-2′-(3-(4-(4-fluorophenyl)piperazin-1-yl)-3-methylbut-1-en-1-yl)-7′,8′-dihydro-3′H-spiro[cyclopropane-1,6′-quinazolin]-4′(5′H)-one] | 5000 to 500000
CC(CCc1nc2c(c(=O)[nH]1)CC1(CC2)CC1)N1CCN(c2ccc(F)cc2)CC1 (stereo not shown) [Compound 21, 2′-(3-(4-(4-fluorophenyl)piperazin-1-yl)butyl)-7′,8′-dihydro-3′H-spiro[cyclopropane-1,6′-quinazolin]-4′(5′H)-one] | 1 to 500
Cc1cccc(N2CCN([C@H]3C=C(c4nc5c(c(=O)[nH]4)CC4(CC5)CC4)CC3)CC2)c1C [Compound 140, (R)-2′-(3-(4-(2,3-dimethylphenyl)piperazin-1-yl)cyclopent-1-en-1-yl)-7′,8′-dihydro-3′H-spiro[cyclopropane-1,6′-quinazolin]-4′(5′H)-one] | 501 to 5000
CNC(=O)c1cnc(N2CCN([C@H]3C=C(c4nc5c(c(=O)[nH]4)CC4(CC5)CC4)CC3)CC2)c(F)c1 [Compound 112, (R)-5-fluoro-N-methyl-6-(4-(3-(4′-oxo-4′,5′,7′,8′-tetrahydro-3′H-spiro[cyclopropane-1,6′-quinazolin]-2′-yl)cyclopent-2-en-1-yl)piperazin-1-yl)nicotinamide] | 501 to 5000
O=c1[nH]c([C@@H]2CC[C@@H](N3CCN(c4cccc(F)c4)CC3)C2)nc2c1CC1(CC2)CC1 [Compound 156, 2′-((1R,3R)-3-(4-(3-fluorophenyl)piperazin-1-yl)cyclopentyl)-7′,8′-dihydro-3′H-spiro[cyclopropane-1,6′-quinazolin]-4′(5′H)-one] | 5000 to 500000
Cc1ncccc1N1CCN([C@H]2C=C(c3nc4c(c(=O)[nH]3)CC3(CC4)CC3)CC2)CC1 [Compound 129, (R)-2′-(3-(4-(2-methylpyridin-3-yl)piperazin-1-yl)cyclopent-1-en-1-yl)-7′,8′-dihydro-3′H-spiro[cyclopropane-1,6′-quinazolin]-4′(5′H)-one] | 1 to 500
O=c1[nH]c(CCCN2CC=C(c3ccccc3)CC2)nc2c1CCC1(CC1)C2 [Compound 17, 2′-(3-(4-phenyl-5,6-dihydropyridin-1(2H)-yl)propyl)-5′,6′-dihydro-3′H-spiro[cyclopropane-1,7′-quinazolin]-4′(8′H)-one] | 5000 to 500000
O=c1[nH]c([C@H]2CC[C@H](N3CCN(c4ccc(Cl)cc4)CC3)C2)nc2c1CC1(CC2)CC1 [Compound 119, 2′-((1S,3S)-3-(4-(4-chlorophenyl)piperazin-1-yl)cyclopentyl)-7′,8′-dihydro-3′H-spiro[cyclopropane-1,6′-quinazolin]-4′(5′H)-one] | 1 to 500
CNC(=O)c1csc(N2CCN([C@H]3C=C(c4nc5c(c(=O)[nH]4)CC4(CC5)CC4)CC3)CC2)n1 [Compound 105, (R)—N-methyl-2-(4-(3-(4′-oxo-4′,5′,7′,8′-tetrahydro-3′H-spiro[cyclopropane-1,6′-quinazolin]-2′-yl)cyclopent-2-en-1-yl)piperazin-1-yl)thiazole-4-carboxamide] | 501 to 5000
O=c1[nH]c(CCCN2CCN(c3ccccc3Cl)CC2)nc2c1CC1(CC2)CC1 [Compound 14, 2′-(3-(4-(2-chlorophenyl)piperazin-1-yl)propyl)-7′,8′-dihydro-3′H-spiro[cyclopropane-1,6′-quinazolin]-4′(5′H)-one] | 1 to 500
O=c1[nH]c(CCCN2CCN(c3ccc(F)cc3)CC2)nc2c1CC1CC1C2 (stereo not shown) [Compound 24, 2-(3-(4-(4-fluorophenyl)piperazin-1-yl)propyl)-5a,6,6a,7-tetrahydro-3H-cyclopropa[g]quinazolin-4(5H)-one] | 1 to 500
Cc1ccc(F)cc1N1CCN([C@H]2C=C(c3nc4c(c(=O)[nH]3)CC3(CC4)CC3)CC2)CC1 [Compound 123, (R)-2′-(3-(4-(5-fluoro-2-methylphenyl)piperazin-1-yl)cyclopent-1-en-1-yl)-7′,8′-dihydro-3′H-spiro[cyclopropane-1,6′-quinazolin]-4′(5′H)-one] | 1 to 500
O=c1[nH]c(C2=C[C@H](N3CC=C(c4ccc(Cl)cc4)CC3)CC2)nc2c1CC1(CC2)CC1 [Compound 46, (R)-2′-(3-(4-(4-chlorophenyl)-5,6-dihydropyridin-1(2H)-yl)cyclopent-1-en-1-yl)-7′,8′-dihydro-3′H-spiro[cyclopropane-1,6′-quinazolin]-4′(5′H)-one] | 1 to 500
Cc1cc(N2CCN([C@H]3C=C(c4nc5c(c(=O)[nH]4)CC4(CC5)CC4)CC3)CC2)ccc1F [Compound 80, (R)-2′-(3-(4-(4-fluoro-3-methylphenyl)piperazin-1-yl)cyclopent-1-en-1-yl)-7′,8′-dihydro-3′H-spiro[cyclopropane-1,6′-quinazolin]-4′(5′H)-one] | 1 to 500
CNC(=O)c1ccc(N2CCN([C@H]3C=C(c4nc5c(c(=O)[nH]4)CC4(CC5)CC4)CC3)CC2)cc1C [Compound 98, (R)—N, 2-dimethyl-4-(4-(3-(4′-oxo-4′,5′,7′,8′-tetrahydro-3′H-spiro[cyclopropane-1,6′-quinazolin]-2′-yl)cyclopent-2-en-1-yl)piperazin-1-yl)benzamide] | 1 to 500
CNC(=O)c1ccc(C2=CCN([C@H]3C=C(c4nc5c(c(=O)[nH]4)CC4(CC5)CC4)CC3)CC2)cc1 [Compound 72, (R)—N-methyl-4-(1-(3-(4′-oxo-4′,5′,7′,8′-tetrahydro-3′H-spiro[cyclopropane-1,6′-quinazolin]-2′-yl)cyclopent-2-en-1-yl)-1,2,3,6-tetrahydropyridin-4-yl)benzamide] | 1 to 500
O=c1[nH]c(C2=C[C@H](N3CCN(c4c(F)cccc4F)CC3)CC2)nc2c1CC1(CC2)CC1 [Compound 110, (R)-2′-(3-(4-(2,6-difluorophenyl)piperazin-1-yl)cyclopent-1-en-1-yl)-7′,8′-dihydro-3′H-spiro[cyclopropane-1,6′-quinazolin]-4′(5′H)-one] | 501 to 5000
CNC(=O)c1ccnc(N2CCN([C@H]3C=C(c4nc5c(c(=O)[nH]4)CC4(CC5)CC4)CC3)CC2)c1 [Compound 130, (R)—N-methyl-2-(4-(3-(4′-oxo-4′,5′,7′,8′-tetrahydro-3′H-spiro[cyclopropane-1,6′-quinazolin]-2′-yl)cyclopent-2-en-1-yl)piperazin-1-yl)isonicotinamide] | 501 to 5000
O=c1[nH]c(C2=C[C@H](N3CC=C(c4ccc(F)cc4)CC3)CC2)nc2c1CC1(CC2)CC1 [Compound 52, (R)-2′-(3-(4-(4-fluorophenyl)-5,6-dihydropyridin-1 (2H)-yl)cyclopent-1-en-1-yl)-7′,8′-dihydro-3′H-spiro[cyclopropane-1,6′-quinazolin]-4′(5′H)-one] | 1 to 500
